From PMC6020689 (Angewandte Chemie (International ed. in English), 2018) come the findings set out here.

The target in this test is EtCYP112 (Erwinia tracheiphila, UniProt A0A0M2KIP9). The test is described as follows: GC-MS product analysis, reconstituted system. Format: biochemical. The following applies: spinach Fd, EtFdR.

As to `C=C1C[C@]23C[C@H]1CC[C@H]2[C@]1(C)CCC[C@@](C)(C(=O)O)[C@H]1[C@@H]3C(=O)O` [GA12], the “GC-MS product analysis, reconstituted system” value (NADPH in excess) is “reconstituted system with purified ferredoxin reductase from E. tracheiphila (EtFdR) and spinach ferredoxin (Fd), converting GA12”.
Take `C=C1C[C@]23C[C@H]1CC[C@H]2[C@]1(C=O)CCC[C@@](C)(C(=O)O)[C@H]1[C@@H]3C(=O)O` [GA24]: the “GC-MS product analysis, reconstituted system” value (NADPH) is “while GA15 and GA24 were readily converted to GA9, GA25 is not”.
